# Laboratory results taken from the supplement of paper PMC8149375.
# Experiments:
# Conditions in all cases: treatment: drug + dasatinib (fixed dose, not stated); 5 days
# ACHN [1] = assay: GI50 of drug in presence of dasatinib; higher = less potent
# Procedure: (§1)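 Primary HTS combination arm: 8 RCC cell lines treated with 8 doses (up to 10 uM) of each library drug plus a fixed dose of dasatinib (dose not stated) for 5 days; viability read by CellTiter-Glo and normalised to DMSO. GI50 was fitted with XLfit, AUC is the area under the dose-response curve, and minimum viability is the lowest fraction of DMSO viability across doses.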
# UO-31 [2] = assay: as above
# Procedure: as §1
# 769-P [3] = assay: as above
# Procedure: as §1
# TK-10 [4] = assay: as above
# Procedure: as §1
# SN12C [5] = assay: as above
# Procedure: as §1
# A498 [6] = assay: as above
# Procedure: as §1
# CAKI-1 [7] = assay: as above
# Procedure: as §1
# 786-O [8] = assay: as above
# Procedure: as §1
# ACHN [9] = assay: minimum viability across doses, drug + dasatinib, relative to DMSO (fraction); higher = less growth inhibition
# Procedure: as §1
# UO-31 [10] = assay: as above
# Procedure: as §1
# 769-P [11] = assay: as above
# Procedure: as §1
# TK-10 [12] = assay: as above
# Procedure: as §1
# SN12C [13] = assay: as above
# Procedure: as §1
# A498 [14] = assay: as above
# Procedure: as §1
# CAKI-1 [15] = assay: as above
# Procedure: as §1
# 786-O [16] = assay: as above
# Procedure: as §1
# ACHN [17] = assay: AUC of dose-response viability curve, drug + dasatinib, normalised to DMSO (arbitrary (AUC of normalised viability)); higher = less growth inhibition
# Procedure: as §1
# UO-31 [18] = assay: as above
# Procedure: as §1
# 769-P [19] = assay: as above
# Procedure: as §1
# TK-10 [20] = assay: as above
# Procedure: as §1
# SN12C [21] = assay: as above
# Procedure: as §1
# A498 [22] = assay: as above
# Procedure: as §1
# CAKI-1 [23] = assay: as above
# Procedure: as §1
# 786-O [24] = assay: as above
# Procedure: as §1
GI50 of drug (ACHN [1]) [nM],GI50 of drug (786-O [8]) [nM],SMILES,GI50 of drug (UO-31 [2]) [nM],GI50 of drug (769-P [3]) [nM],GI50 of drug (TK-10 [4]) [nM],GI50 of drug (SN12C [5]) [nM],GI50 of drug (A498 [6]) [nM],GI50 of drug (CAKI-1 [7]) [nM],minimum viability across doses (ACHN [9]),minimum viability across doses (UO-31 [10]),minimum viability across doses (769-P [11]),minimum viability across doses (TK-10 [12]),minimum viability across doses (SN12C [13]),minimum viability across doses (A498 [14]),minimum viability across doses (CAKI-1 [15]),minimum viability across doses (786-O [16]),AUC of dose-response viability curve (ACHN [17]),AUC of dose-response viability curve (UO-31 [18]),AUC of dose-response viability curve (769-P [19]),AUC of dose-response viability curve (TK-10 [20]),AUC of dose-response viability curve (SN12C [21]),AUC of dose-response viability curve (A498 [22]),AUC of dose-response viability curve (CAKI-1 [23]),AUC of dose-response viability curve (786-O [24])
659,> 10000,CCc1cc2c(cc1N1CCC(N3CCOCC3)CC1)C(C)(C)c1[nH]c3cc(C#N)ccc3c1C2=O + Cc1nc(Nc2ncc(C(=O)Nc3c(C)cccc3Cl)s2)cc(N2CCN(CCO)CC2)n1 [dasatinib],7800,> 10000,5110,> 10000,> 10000,2340,0.247,0.0552,0.535,0.377,0.675,1.12,0.311,0.614,1.82,5.15,2.47,2.35,2.45,4.59,2.04,2.35
3.78,5280,CN1CCN(c2cccc(Nc3nc4c(-c5ccc(S(C)(=O)=O)cc5)cccn4n3)c2)CC1 + Cc1nc(Nc2ncc(C(=O)Nc3c(C)cccc3Cl)s2)cc(N2CCN(CCO)CC2)n1 [dasatinib],3160,4170,1250,> 10000,> 10000,704,0.0965,0.0195,0.293,0.174,0.246,1.02,0.0803,0.443,1.23,3.59,2.27,2.12,2.37,3.99,1.84,2.21
162,953,CN(C)c1ccc(-c2nc3c(N4CCN(CC(=O)Nc5nccs5)CC4)c(Cl)cnc3[nH]2)cc1 + Cc1nc(Nc2ncc(C(=O)Nc3c(C)cccc3Cl)s2)cc(N2CCN(CCO)CC2)n1 [dasatinib],2840,1950,4030,976,3350,334,0.145,0.107,0.307,0.487,0.2,0.281,0.0775,0.26,1.53,3.26,2.19,2.34,2.03,2.88,1.69,1.91
141,232,Cc1cc(CN2CCN(c3c(Br)cnc4[nH]c(-c5ccc(N6CCN(C)CC6)cc5)nc34)CC2)no1 + Cc1nc(Nc2ncc(C(=O)Nc3c(C)cccc3Cl)s2)cc(N2CCN(CCO)CC2)n1 [dasatinib],2450,504,1820,626,2010,231,0.0106,0.0168,0.019,0.198,0.00484,0.0164,0.00433,0.00361,1.5,3.64,1.76,2.24,1.78,3.1,1.57,1.52
230,7250,Cc1c(NC(=O)OC[C@@H]2COCCN2)cn2ncnc(Nc3ccc4c(cnn4Cc4cccc(F)c4)c3)c12.Cl + Cc1nc(Nc2ncc(C(=O)Nc3c(C)cccc3Cl)s2)cc(N2CCN(CCO)CC2)n1 [dasatinib],5460,652,1140,> 10000,> 10000,2430,0.249,0.251,0.157,0.19,0.662,0.858,0.441,0.444,1.84,2.98,2.01,2.31,2.47,3.28,2.24,2.62
1050,> 10000,Cc1cc2c(F)c(Oc3ncnn4cc(OC[C@@H](C)OC(=O)[C@H](C)N)c(C)c34)ccc2[nH]1 + Cc1nc(Nc2ncc(C(=O)Nc3c(C)cccc3Cl)s2)cc(N2CCN(CCO)CC2)n1 [dasatinib],9860,> 10000,> 10000,> 10000,> 10000,7600,0.316,0.457,0.617,0.674,0.605,0.733,0.431,0.504,1.89,3.27,2.41,2.69,2.47,3.16,2.59,2.48
85.4,683,COCCOc1ccc2c(c1)ncn2-c1ccc2cccc(N3CCC(N)CC3)c2n1 + Cc1nc(Nc2ncc(C(=O)Nc3c(C)cccc3Cl)s2)cc(N2CCN(CCO)CC2)n1 [dasatinib],2910,1880,1810,1690,3200,471,0.0189,0.0088,0.123,0.261,0.041,0.0463,0.2,0.00646,1.73,3.4,2.23,2.2,2.36,2.84,1.85,1.86

# The remaining lines, values behind:
SMILES,GI50 of drug (ACHN [1]) [nM],GI50 of drug (786-O [8]) [nM],GI50 of drug (UO-31 [2]) [nM],GI50 of drug (769-P [3]) [nM],GI50 of drug (TK-10 [4]) [nM],GI50 of drug (SN12C [5]) [nM],GI50 of drug (A498 [6]) [nM],GI50 of drug (CAKI-1 [7]) [nM],minimum viability across doses (ACHN [9]),minimum viability across doses (UO-31 [10]),minimum viability across doses (769-P [11]),minimum viability across doses (TK-10 [12]),minimum viability across doses (SN12C [13]),minimum viability across doses (A498 [14]),minimum viability across doses (CAKI-1 [15]),minimum viability across doses (786-O [16]),AUC of dose-response viability curve (ACHN [17]),AUC of dose-response viability curve (UO-31 [18]),AUC of dose-response viability curve (769-P [19]),AUC of dose-response viability curve (TK-10 [20]),AUC of dose-response viability curve (SN12C [21]),AUC of dose-response viability curve (A498 [22]),AUC of dose-response viability curve (CAKI-1 [23]),AUC of dose-response viability curve (786-O [24])
CCCCOc1c(C(=O)c2c(F)cc(C)cc2F)cnc2[nH]ncc12 + Cc1nc(Nc2ncc(C(=O)Nc3c(C)cccc3Cl)s2)cc(N2CCN(CCO)CC2)n1 [dasatinib],15,25.2,2650,> 10000,322,> 10000,> 10000,2580,0.135,0.182,0.52,0.377,0.565,0.795,0.378,0.0144,1.18,3.38,2.26,1.89,2.47,3.45,1.94,1.09
Cc1cc2c(F)c(Oc3ncnn4cc(OC[C@@H](C)O)c(C)c34)ccc2[nH]1 + Cc1nc(Nc2ncc(C(=O)Nc3c(C)cccc3Cl)s2)cc(N2CCN(CCO)CC2)n1 [dasatinib],1040,> 10000,> 10000,> 10000,> 10000,> 10000,> 10000,6470,0.343,0.528,0.682,0.693,0.621,0.789,0.179,0.656,1.8,3.43,2.59,2.68,2.39,3.38,2.3,2.65
O=C(NOCC1CC1)c1ccc(F)c(F)c1Nc1ccc(I)cc1Cl + Cc1nc(Nc2ncc(C(=O)Nc3c(C)cccc3Cl)s2)cc(N2CCN(CCO)CC2)n1 [dasatinib],342,4460,2610,1780,4600,1520,3190,1480,0.224,0.174,0.197,0.367,0.298,0.306,0.13,0.431,1.8,2.72,2.12,2.4,2.07,2.51,2.04,2.46
Nc1nc(NCCNc2ncc(-n3ccnc3)c(-c3ccc(Cl)cc3Cl)n2)ccc1[N+](=O)[O-] + Cc1nc(Nc2ncc(C(=O)Nc3c(C)cccc3Cl)s2)cc(N2CCN(CCO)CC2)n1 [dasatinib],1830,552,1600,1540,1590,7550,9900,1230,0.0281,0.0119,0.0308,0.0534,0.268,0.474,0.0567,0.00601,1.88,3.5,2.13,2.25,2.28,3.68,2,1.93
CN(C)Cc1cccc(N/C(=C2\C(=O)Nc3cc(C(=O)N(C)C)ccc32)c2ccccc2)c1 + Cc1nc(Nc2ncc(C(=O)Nc3c(C)cccc3Cl)s2)cc(N2CCN(CCO)CC2)n1 [dasatinib],631,3740,7140,> 10000,5620,2480,9880,1120,0.0657,0.0229,0.561,0.386,0.229,0.473,0.0645,0.348,1.61,3.62,2.43,2.49,2.35,3.5,2.09,2.19
Nc1nccc(Oc2ccc(NC(=O)c3c[nH]cc(-c4ccc(F)cc4)c3=O)cc2F)c1Cl + Cc1nc(Nc2ncc(C(=O)Nc3c(C)cccc3Cl)s2)cc(N2CCN(CCO)CC2)n1 [dasatinib],5540,7600,> 10000,5580,> 10000,> 10000,> 10000,4030,0.395,0.717,0.349,0.56,0.559,0.617,0.323,0.44,2.2,4.48,2.29,2.52,2.34,3.3,2.03,2.28
NC1(Cc2ccc(Cl)cc2)CCN(c2ncnc3[nH]ccc23)CC1 + Cc1nc(Nc2ncc(C(=O)Nc3c(C)cccc3Cl)s2)cc(N2CCN(CCO)CC2)n1 [dasatinib],1480,353,3230,5140,2130,4470,8070,2550,0.165,0.0115,0.323,0.207,0.356,0.401,0.202,0.00351,2.04,3.84,2.5,2.38,2.36,3.16,2.19,1.97
